Data taken from patent US6635437B2, “Compounds, compositions and methods for generating chemiluminescence with phosphatase enzymes” (Lumigen, Inc., priority 1996, dated 2003).

What was measured:
[1] = system: alkaline phosphatase (AP); test: Chemiluminescent detection of alkaline phosphatase with acridan phosphate and cationic aromatic compound (CAC); type: biochemical; conditions: for S at 36 min (plateau intensity): 21 mM CAC in DMSO diluted 1:1000 into compound 5 in 0.1 M tris pH 8.8
[2] = system: alkaline phosphatase (AP); test: Chemiluminescent detection of alkaline phosphatase with acridan phosphate and surfactant enhancer; type: biochemical; conditions: for Rel. (S/B normalized to the results obtained with no enhancer) / S/B (ratio of light intensities with AP and with no enzyme): acridan 1 with 10^−16 mol of AP, each surfactant at the concentration producing the greatest enhancement; for S/B (ratio of maximum light intensity to light intensity in the absence of enzyme): 0.33 mM 1, 0.01 mg/mL Enhancer A
acid phosphatase (AcP) [3] = test: Chemiluminescent detection of acid phosphatase and inhibition by tartrate; type: biochemical
Procedure: The quenching of emission was not due to a reduction of the pH since addition of 10 μL of citrate buffer caused only a 25% reduction in light intensity.

AP-labeled antibody [4] = test: Western blot assay of human transferrin using PVDF membrane
Source text: The chemiluminescent reaction of the present invention provides a particularly effective reagent for detection of AP conjugates on polyvinylidene difluoride (PVDF) membranes, nylon membranes and on nitrocellulose filters and membranes.
provides an intense luminescence which rises to a maximum level nearly instantly and maintains essentially constant intensity for at least 2 days. Detection on film and optimizing image intensity are thus particularly convenient.
Compositions of the present invention were used to detect and quantify a protein, human transferrin in a Western blot with an AP-labeled antibody on a polyvinylidene difluoride (PVDF) membrane. Dilutions of transferrin containing from 5000, 1000, 180, 30 and 5 pg, respectively, of protein were electrophoresed and transferred to PVDF membranes (Millipore, Bedford, Mass.). The transferrin bands were blocked with and then reacted sequentially with goat anti-human transferrin and rabbit anti-goat-AP conjugate. The membranes were soaked briefly with reagents comprising 0.2 M 221 buffer, pH 9.6 containing 0.88 mM MgCl2, 0.66 mM acridan phosphate 1 and 0.1 to 1 mg/mL of Enhancer A. The membranes were placed between transparent plastic sheets and exposed to X-ray film. […] The light produced using these compositions with varying amounts of the enhancer led to intense emission which could be imaged for at least 2 weeks. […]

acid phosphatase (AcP) [5] = test: Chemiluminescent detection of AcP by pH change; type: biochemical; conditions: 0.33 mM 1, tris pH 7.0, 0.1% BSA, 0.01% Enhancer A, 3 μL AcP, 8 min; 1 N NaOH injected, integrated 4 min
Procedure: An alternate way to detect the light emitted by reaction of AcP with 1 is to incubate a reagent composition containing 1 and enhancer with AcP at a first pH and then rapidly raise the pH by injecting a solution of a strong base to cause a burst of light emission. A reagent composition (100 μL) comprising 0.33 mM acridan phosphate 1 in 0.1 M tris buffer, pH 7.0, 0.1% BSA and 0.01% Enhancer A was reacted with 3 μL of AcP (Sigma AcP LIN-TROL, reconstituted to 2.0 mL, 83 U/L) for 8 min at ambient temperature in a test tube. A solution of 1 N NaOH (50 μL) was injected and light intensity integrated for 4 min.

AP-labeled antibody [6] = test: Western blot using nitrocellulose membrane; conditions: 0.33 mM 1, pH 9.6, 0.5 mg/mL Enhancer A
Procedure: A Western blot assay according to the procedures in Example 27 was performed using nitrocellulose membrane as the solid phase. Transferrin standards in the range of 5000-30 pg were used.

[7] = 4×10^−16 mol AP, room temperature

## (E, Z)-9-(2,6-Dimethylphenoxy)phosphoryloxymethylidene)-3-chloro-10-methylacridan, disodium salt [Compound 4]
[1]; [7]
  S at 36 min (plateau intensity): 4645

## 9-(3,5-Dimethylphenoxy)phohosphoryloxymethylidene)-10-methylacridan. disodium salt [Compound 2]
[1]; [7]
  S at 36 min (plateau intensity): 45.3

## 9-(2′,2′,2′-Trifluoroethylthiophosphoryloxymethylidene)-10-methylacridan, disodium salt [Compound 11]
[1]; [7]
  S at 36 min (plateau intensity): 9.3

## CCCCCCCCCCCCCCCC[N+](C)(C)C.[Br-] [Surfactant I, cetyltrimethylammonium bromide]
[2]
  Rel. (S/B normalized to the results obtained with no enhancer): 1.7
  S/B (ratio of light intensities with AP and with no enzyme): 24

## (E,Z)-9-(Phenoxy)phosphoryloxymethylidene)-3-methoxy-10-methylacridan, disodium salt [Compound 3]
[1]; [7]
  S at 36 min (plateau intensity): 5963

## O=S([O-])[O-].[Na+].[Na+] [Na2SO3, sodium sulfite]
[1]; Na2SO3 1.0 mg/mL to 1.0 μg/mL in Reagent A
  background signal (B) in the absence of AP versus control: lower background signal (B)
[1]; Na2SO3 1.0 mg/mL to 1.0 μg/mL in Reagent A, 4×10^−16 mol AP, 3.5 min, room temperature
  signal (S) versus control: higher signal (S) than the control

## CCCCCCCC[P+](CCCCCCCC)(CCCCCCCC)Cc1ccc(C[P+](CCCC)(CCCC)CCCC)cc1.[Cl-].[Cl-] [Surfactant E, 1-trioctylphosphoniummethyl-4-tributylphosphonium-methylbenzene dichloride]
[2]
  Rel. (S/B normalized to the results obtained with no enhancer): 11.6
  S/B (ratio of light intensities with AP and with no enzyme): 162

## O=C(O)C(O)C(O)C(=O)O (stereo not shown) [tartrate, reference compound]
Acid phosphatase (AcP) [3]; addition of 5 μL of 0.04 M tartrate in citrate buffer (0.09 M, pH 4.8)
  effect on light emission (inhibition of enzyme activity): complete extinction of light emission

## CCCCCCCCCCCCOS(=O)(=O)[O-].[Na+] [Surfactant H, sodium dodecyl sulfate]
[2]
  Rel. (S/B normalized to the results obtained with no enhancer): 1.9
  S/B (ratio of light intensities with AP and with no enzyme): 26
[1]; SDS 10 mg/mL to 10 μg/mL, 0.66 mM 5, tris pH 8.8, 4×10^−16 mol AP, room temperature
  rise to peak signal versus control without SDS: faster rise to peak signal

## 9-(Phenylthiophosphoryloxymethylidene)-2,7-difluoro-10-methylacridan, disodium salt [Compound 10]
[1]; [7]
  S at 36 min (plateau intensity): 21.1

## (E,Z)-9-(Phenoxy)phosphoryloxymethylidene)-12-methylbenz[c]acridan, disodium salt [Compound 6]
[1]; [7]
  S at 36 min (plateau intensity): 72.3

## CCCCCCCC[N+](CCCCCCCC)(CCCCCCCC)Cc1ccc(C[N+](CCCC)(CCCC)CCCC)cc1.[Cl-].[Cl-] [Surfactant J, 1-trioctylammoniumnmethyl-4-tributylammoniummethylbenzene dichloride]
[2]
  Rel. (S/B normalized to the results obtained with no enhancer): 1.2
  S/B (ratio of light intensities with AP and with no enzyme): 17

## 9-(4-Methoxyphenylthiophosphoryloxymethylidene)-10-methylacridan, disodium salt [Compound 8]
[1]; [7]
  S at 36 min (plateau intensity): 19.1

## CN1c2ccccc2C(=C(Oc2ccccc2)OP(=O)([O-])[O-])c2ccccc21.[Na+].[Na+] [Compound 1, 9-(Phenoxyphosphoryloxymethylidene)-10-methylacridan, disodium salt]
AP-labeled antibody [4]; 0.66 mM 1, 0.2 M 221 buffer pH 9.6, 0.1 to 1 mg/mL Enhancer A, PVDF
  time for which emission could be imaged: at least 2 weeks
AP-labeled antibody [4]; antibody-AP conjugate on PVDF membrane
  time for which luminescence maintains essentially constant intensity: at least 2 days
Acid phosphatase (AcP) [3]; 0.33 mM 1, 0.1 M tris pH 7, 0.01-0.1% Enhancer A, ambient temperature
  time course of chemiluminescence with AcP: reached maximum intensity nearly instantaneously and remained nearly constant for several minutes
[2]; 0.33 mM 1, 0.1 M tris pH 8.5, 0.88 mM Mg, 0.01 mg/mL Enhancer A, 10^−13 mol AP, 25° C.
  time to maximum chemiluminescence intensity: 2 min
[2]; composition of Example 14 (0.1 M tris pH 8.5, Enhancer A), AP, 25° C.
  chemiluminescence on reaction with AP: easily measurable blue chemiluminescence
[2]; pH 7.0, tris, 8×10^−16 mol AP, 25° C.
  S/B (ratio of maximum light intensity to light intensity in the absence of enzyme): 37
[2]; pH 7.5, tris, 8×10^−16 mol AP, 25° C.
  S/B (ratio of maximum light intensity to light intensity in the absence of enzyme): 144
[2]; pH 8.0, tris, 8×10^−16 mol AP, 25° C.
  S/B (ratio of maximum light intensity to light intensity in the absence of enzyme): 273
[2]; pH 8.5, tris, 8×10^−16 mol AP, 25° C.
  S/B (ratio of maximum light intensity to light intensity in the absence of enzyme): 280
[2]; pH 9.0, 221 buffer, 8×10^−16 mol AP, 25° C.
  S/B (ratio of maximum light intensity to light intensity in the absence of enzyme): 200
[2]; pH 9.0, tris, 8×10^−16 mol AP, 25° C.
  S/B (ratio of maximum light intensity to light intensity in the absence of enzyme): 195
[2]; pH 9.5, 221 buffer, 8×10^−16 mol AP, 25° C.
  S/B (ratio of maximum light intensity to light intensity in the absence of enzyme): 87
[2]; pH 10.0, 221 buffer, 8×10^−16 mol AP, 25° C.
  S/B (ratio of maximum light intensity to light intensity in the absence of enzyme): 13
[2]; pH 10.5, 221 buffer, 8×10^−16 mol AP, 25° C.
  S/B (ratio of maximum light intensity to light intensity in the absence of enzyme): 1.3
[2]; reagent composition of Example 14, 8×10^−16 mol AP, 25° C.
  time to maximum chemiluminescence intensity: ca. 2 min
Acid phosphatase (AcP) [5]
  light intensity relative to reagent blank: three times the reagent blank
[1]; [7]
  S at 36 min (plateau intensity): 2602
AP-labeled antibody [6]
  period over which detection could be performed: over several hours

## 9-(4-Fluorophenylthiophosphoryloxymethylidene)-10-methylacridan, disodium salt [Compound 7]
[1]; 0.66 mM 7, 6.4 μM lucigenin, SDS, Na2SO3, TWEEN 20, tris pH 8.8, 8×10^−16 mol AP, room temperature
  time to stable plateau of chemiluminescence intensity: under 5 sec
[1]; [7]
  S at 36 min (plateau intensity): 61.6

## 9-(2,6-Dimethylphenylthiophosphoryloxymethylidene)-10-methylacridan. disodium salt [Compound 9]
[1]; [7]
  S at 36 min (plateau intensity): 781

## polyoxyethylene(20)sorbitan monolaurate [Surfactant F]
[2]
  Rel. (S/B normalized to the results obtained with no enhancer): 8.6
  S/B (ratio of light intensities with AP and with no enzyme): 120
[1]; TWEEN 20 1.0% to 0.001%, Reagent A with 21 μM lucigenin, lacking Na2SO3, 4×10^−16 mol AP
  effect on duration of chemiluminescence: effective in extending the duration of chemiluminescence at or near maximum intensity

## bovine serum albumin: the protein bovine serum albumin, added to the detection reagent
Acid phosphatase (AcP) [3]; added to the detection reagent at 0.1%
  effect on duration of light emission: prolonged the duration of light emission significantly

## 1-trioctylphosphoniummethyl-4-tributylammonium-methylbenzene, mixed bromide chloride salt [Surfactant G]
[2]
  Rel. (S/B normalized to the results obtained with no enhancer): 4.5
  S/B (ratio of light intensities with AP and with no enzyme): 63

## C[n+]1c2ccccc2c(-c2c3ccccc3[n+](C)c3ccccc23)c2ccccc21.O=[N+]([O-])[O-].O=[N+]([O-])[O-] [CAC 1, N,N′-dimethylbiacridinium dinitrate, reference compound]
[1]; 6.4 μM lucigenin, 0.66 mM 5, 0.1 M tris pH 8.8, 8×10^−16 mol AP, 25° C.
  effect of lucigenin on light intensity: much higher light intensity
[1]; 6.4 mM to 6.4 nM lucigenin, 0.66 mM 5, tris pH 8.8, 4×10^−16 mol AP, 3.5 min, room temperature
  signal (S) versus control without lucigenin: higher signal (S) than the control

## CN1c2ccccc2C(C(=O)Oc2ccccc2)c2ccccc21 [phenyl 10-methylacridan-9-carboxylate, reference compound]
[2]; composition as Example 14 with the ester in place of 1
  effect of addition of AP on chemiluminescence: no effect
